{"source": "patent US20210392892A1", "about": "“COMPOSITIONS COMPRISING PYRIDINE CARBOXYLATE HERBICIDES AND ACETYL COA CARBOXYLASE (ACCASE) INHIBITOR HERBICIDES” (Corteva Agriscience LLC, priority 2018, published 2021)", "experiment_in_all_cases": "Greenhouse postemergence herbicidal effect (visual injury)", "format_in_all_cases": "in vivo", "key": {"[1]": {"system": "BRAPP, Brachiaria platyphylla (broadleaf signalgrass)", "conditions": "with cloquintocet-mexyl", "source_text": "(§1) Seeds of the desired test plant species were planted in a 90:10% v/v (volume/volume) mixture of PRO-MIX® BX (Premier Tech Horticulture, Quakertown, Pa., USA) and PROFILE® GREENS GRADE™ (Profile Products LLC, Buffalo Grove, Ill., USA) planting mixture, which typically has a pH of 5.2 to 6.2 and an organic matter content of at least 50 percent, in plastic pots with a surface area of 103.2 square centimeters (cm^2). In some aspects, to help ensure good germination and healthy plants, a fungicide treatment and/or other chemical or physical treatment was applied. The plants were grown for 7-36 days (d) in a greenhouse with an approximate 14-hour (h) photoperiod which was maintained at about 23° C. during the day and 22° C. during the night. Nutrients and water were added on a regular basis and supplemental lighting was provided with overhead metal halide 1000-Watt lamps as necessary. The plants were employed for testing when they reached the second or third true leaf stage.\n(§2) Emulsifiable concentrates of each of each pyridine carboxylate herbicide (Compound A or Compound B) were prepared at 100 grams acid equivalent per liter (g ae/L). The emulsifiable concentrates also included a safener, cloquintocet-mexyl, at 120 grams active ingredient per liter (g ai/L), unless otherwise noted below. An aliquot of each emulsifiable concentrate was placed in a 25 mL glass vial and diluted with an aqueous mixture of 1.25% (v/v) ACTIROB® B esterified rapeseed oil (Bayer Crop Science, Research Triangle Park, N.C., USA) or MSO® Concentrate with LECI-TECH® methylated soybean oil (Loveland Products, Loveland, Colo., USA) to obtain concentrated stock solutions at the highest application rate for each herbicide, based upon a 12 milliliter (mL) application volume at a rate of 187 liters per hectare (L/ha). The concentrated stock solutions were further diluted with an aqueous mixture of 1.25% v/v ACTIROB® B or MSO® Concentrate with LECI-TECH® to obtain stock solutions at reduced application rates for each herbicide. Spray solutions of the herbicide combinations (Compound A or Compound B plus ACCase inhibitor herbicide) were prepared by adding weighed amounts or aliquots of the ACCase inhibitor herbicide to the stock solutions of Compound A or Compound B to form 12-mL spray solutions in two-way combinations.\n(§3) The spray solutions were applied to the plant material with an overhead Mandel track sprayer equipped with 8002E nozzles calibrated to deliver 187 L/ha over an application area of 0.503 square meters (m^2) at a spray height of 18 inches (43 centimeters (cm)) above the average plant canopy. Control plants were sprayed in the same manner with the solvent blank. All pyridine carboxylate herbicide (component a) application rates are given as “g ae/ha” and all ACCase inhibitor herbicide (component b) application rates are given as “g ai/ha.”\n(§4) The treated plants and control plants were placed in a greenhouse as described above and watered by sub-irrigation to prevent wash-off of the test compounds. After 20-22 d, the condition of the test plants as compared with that of the control plants was determined visually and scored on a scale of 0 to 100 percent where 0 corresponds to no injury and 100 corresponds to complete kill."}, "[2]": {"system": "BRSNW, Brassica napus (winter rape)", "source_text": "as §1, §2, §3, §4"}, "[3]": {"system": "RUMOB, Rumex obtusifolius (broad-leaf dock)", "source_text": "as §1, §2, §3, §4"}, "[4]": {"system": "SETFA, Setaria faberi (giant foxtail)", "source_text": "as §1, §2, §3, §4"}, "[5]": {"system": "STEME, Stellaria media (chickweed)", "source_text": "as §1, §2, §3, §4"}, "[6]": {"conditions": "7.5 g ae/ha, without cloquintocet-mexyl"}, "[7]": {"conditions": "10 g ae/ha, without cloquintocet-mexyl"}, "[8]": {"conditions": "7.5 g ae/ha, with cloquintocet-mexyl"}, "[9]": {"conditions": "10 g ae/ha, with cloquintocet-mexyl"}}}
{"smiles": "N#CCOC(=O)c1nc(-c2ccc3cc[nH]c3c2F)c(F)c(N)c1Cl", "note": "[Compound A, cyanomethyl 4-amino-3-chloro-5-fluoro-6-(7-fluoro-1H-indol-6-yl)pyridine-2-carboxylate]", "values": [{"measurement": "% visual injury, Obs", "setting": "[1]; 7.5 g ae/ha", "value": 43, "unit": "%"}, {"measurement": "% visual injury, Obs", "setting": "[1]; 10 g ae/ha", "value": 68, "unit": "%"}, {"measurement": "% visual injury, Obs", "setting": "[2]; [6]", "value": 50, "unit": "%"}, {"measurement": "% visual injury, Obs", "setting": "[2]; [7]", "value": 65, "unit": "%"}, {"measurement": "% visual injury, Obs", "setting": "[2]; BRSNW, Compound A 7.5 g/ha, Fluazifop 0 g/ha", "value": 50, "unit": "%"}, {"measurement": "% visual injury, Obs", "setting": "[2]; BRSNW, Compound A 10 g/ha, Fluazifop 0 g/ha", "value": 65, "unit": "%"}, {"measurement": "% visual injury, Obs", "setting": "[3]; [8]", "value": 13, "unit": "%"}, {"measurement": "% visual injury, Obs", "setting": "[3]; [6]", "value": 38, "unit": "%"}, {"measurement": "% visual injury, Obs", "setting": "[3]; [9]", "value": 8, "unit": "%"}, {"measurement": "% visual injury, Obs", "setting": "[3]; [7]", "value": 35, "unit": "%"}, {"measurement": "% visual injury, Obs", "setting": "[3]; RUMOB, Compound A 7.5 g/ha, Fluazifop 0 g/ha", "value": 38, "unit": "%"}, {"measurement": "% visual injury, Obs", "setting": "[3]; RUMOB, Compound A 10 g/ha, Fluazifop 0 g/ha", "value": 35, "unit": "%"}, {"measurement": "% visual injury, Obs", "setting": "[4]; [8]", "value": 0, "unit": "%"}, {"measurement": "% visual injury, Obs", "setting": "[4]; [9]", "value": 0, "unit": "%"}, {"measurement": "% visual injury, Obs", "setting": "[4]; SETFA, Compound A 7.5 g/ha, Fluazifop 0 g/ha", "value": 0, "unit": "%"}, {"measurement": "% visual injury, Obs", "setting": "[4]; SETFA, Compound A 7.5 g/ha, Haloxyfop-R-methyl 0 g/ha", "value": 63, "unit": "%"}, {"measurement": "% visual injury, Obs", "setting": "[4]; SETFA, Compound A 7.5 g/ha, Quizalofop-P-ethyl 0 g/ha", "value": 63, "unit": "%"}, {"measurement": "% visual injury, Obs", "setting": "[4]; SETFA, Compound A 10 g/ha, Fluazifop 0 g/ha", "value": 0, "unit": "%"}, {"measurement": "% visual injury, Obs", "setting": "[4]; SETFA, Compound A 10 g/ha, Haloxyfop-R-methyl 0 g/ha", "value": 60, "unit": "%"}, {"measurement": "% visual injury, Obs", "setting": "[4]; SETFA, Compound A 10 g/ha, Quizalofop-P-ethyl 0 g/ha", "value": 60, "unit": "%"}, {"measurement": "% visual injury, Obs", "setting": "[5]; [8]", "value": 90, "unit": "%"}, {"measurement": "% visual injury, Obs", "setting": "[5]; [6]", "value": 73, "unit": "%"}, {"measurement": "% visual injury, Obs", "setting": "[5]; [9]", "value": 85, "unit": "%"}, {"measurement": "% visual injury, Obs", "setting": "[5]; [7]", "value": 88, "unit": "%"}, {"measurement": "% visual injury, Obs", "setting": "[5]; STEME, Compound A 7.5 g/ha, Fluazifop 0 g/ha", "value": 73, "unit": "%"}, {"measurement": "% visual injury, Obs", "setting": "[5]; STEME, Compound A 10 g/ha, Fluazifop 0 g/ha", "value": 88, "unit": "%"}]}
